The source of these data is ChEMBL document CHEMBL1137758, “Biphenyl C-cyclopropylalkylamides: New scaffolds for targeting estrogen receptor beta” (Bioorg Med Chem Lett, 2009).

Experiment [1] deals with T1, Estrogen receptor beta (Homo sapiens, UniProt Q92731). Put plainly: Displacement of fluorescein-labeled estradiol from human recombinant ERbeta at 5 uM by fluorescence polarization assay.
Experiment [2] deals with T2, Estrogen receptor (Homo sapiens) (UniProt P03372).
T2 sequence (whole entry): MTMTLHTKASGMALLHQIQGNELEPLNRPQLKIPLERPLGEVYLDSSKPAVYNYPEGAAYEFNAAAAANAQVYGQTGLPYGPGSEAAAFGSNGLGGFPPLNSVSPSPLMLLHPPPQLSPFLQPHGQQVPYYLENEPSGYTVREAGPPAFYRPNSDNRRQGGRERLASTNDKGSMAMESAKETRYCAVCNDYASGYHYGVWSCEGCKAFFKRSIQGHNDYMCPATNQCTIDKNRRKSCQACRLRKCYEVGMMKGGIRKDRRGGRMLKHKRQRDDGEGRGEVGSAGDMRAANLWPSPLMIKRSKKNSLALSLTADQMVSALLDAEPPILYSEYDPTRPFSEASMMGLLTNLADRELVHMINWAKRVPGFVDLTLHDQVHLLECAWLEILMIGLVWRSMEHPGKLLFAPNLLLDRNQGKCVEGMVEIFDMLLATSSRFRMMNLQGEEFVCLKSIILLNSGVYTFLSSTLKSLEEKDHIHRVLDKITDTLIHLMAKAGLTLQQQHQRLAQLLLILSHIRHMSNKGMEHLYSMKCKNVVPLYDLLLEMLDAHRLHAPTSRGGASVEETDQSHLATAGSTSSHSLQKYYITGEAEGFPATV
The experiment in a line: Displacement of fluorescein-labeled estradiol from human recombinant ERalpha at 1 uM by fluorescence polarization assay.

In experiment [3] the target is T2, Estrogen receptor (Homo sapiens). The experiment in a line: Displacement of fluorescein-labeled estradiol from human recombinant ERalpha at 5 uM by fluorescence polarization assay. Background: Fluorescence polarisation rises when a labelled molecule tumbles more slowly, as on binding a larger partner.
For experiment [4], the target named is T1, Estrogen receptor beta. Put plainly: Displacement of fluorescein-labeled estradiol from human recombinant ERbeta at 0.2 uM by fluorescence polarization assay.
Experiment [5] deals with T2, Estrogen receptor (Homo sapiens). Put plainly: Displacement of fluorescein-labeled estradiol from human recombinant ERalpha at 0.2 uM by fluorescence polarization assay.
Experiment [6] concerns the target T1, Estrogen receptor beta. Put plainly: Displacement of fluorescein-labeled estradiol from human recombinant ERbeta at 1 uM by fluorescence polarization assay.

T1 sequence (Q92731 whole entry): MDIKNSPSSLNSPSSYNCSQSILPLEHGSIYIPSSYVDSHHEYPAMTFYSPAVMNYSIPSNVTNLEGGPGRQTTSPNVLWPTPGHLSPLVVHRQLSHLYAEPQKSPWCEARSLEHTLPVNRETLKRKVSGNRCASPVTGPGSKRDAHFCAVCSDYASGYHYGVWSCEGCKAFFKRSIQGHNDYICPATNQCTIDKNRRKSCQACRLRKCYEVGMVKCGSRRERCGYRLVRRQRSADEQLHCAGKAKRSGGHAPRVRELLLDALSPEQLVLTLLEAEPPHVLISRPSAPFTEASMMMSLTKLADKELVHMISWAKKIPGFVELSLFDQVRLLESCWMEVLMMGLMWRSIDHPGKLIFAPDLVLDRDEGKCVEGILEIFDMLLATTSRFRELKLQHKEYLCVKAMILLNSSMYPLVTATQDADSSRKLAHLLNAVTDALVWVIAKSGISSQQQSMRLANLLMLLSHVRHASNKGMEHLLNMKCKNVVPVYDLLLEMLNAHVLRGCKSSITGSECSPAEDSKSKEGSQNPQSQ

As to `CCC/C=C(\CCC)[C@@H](NP(=O)(c1ccccc1)c1ccccc1)c1ccccc1`, the Activity at Estrogen receptor beta [1] is 14%; in experiment [2], 25%; in experiment [3] it was 72%; on Estrogen receptor beta [4] it was 6%; in experiment [5] it was 47%; at Estrogen receptor beta [6] it was 9%.
For the compound `CCCC[C@@H]1C[C@H]1C(NC(=O)c1ccco1)c1ccc(C(=O)OC)cc1` (single isomer, unassigned), the Activity at Estrogen receptor beta [1] came to 15%; in experiment [2], 84%; in experiment [3], 89%; on Estrogen receptor beta [4], 8%; in experiment [5] it was 64%; at Estrogen receptor beta [6] it was 2%.
As to `CCC[C@@H]1C[C@@]1(CCC)[C@@H](NC(=O)c1ccco1)c1ccc(C(Cl)(Cl)Cl)cc1`, the Activity is 25% on Estrogen receptor beta [1]; 39% in experiment [2]; 73% in experiment [3]; -2% at Estrogen receptor beta [4]; 26% in experiment [5]; 5% at Estrogen receptor beta [6].
Take `CCC/C=C(\CCC)[C@@H](NC(=O)C(C)(C)C)c1ccc(C(=O)OC)cc1`: the Activity at Estrogen receptor beta [1] was 10%; in experiment [2], 42%; in experiment [3], 63%; on Estrogen receptor beta [4] it was 1%; in experiment [5], 27%; at Estrogen receptor beta [6], -4%.
As to `CCC/C=C(\CCC)[C@@H](NS(=O)(=O)c1cccs1)c1ccc(C(=O)OC)cc1`, the Activity at Estrogen receptor beta [1] came out at 32%; in experiment [2], 33%; in experiment [3] it was 92%; at Estrogen receptor beta [4], 5%; in experiment [5], 39%; at Estrogen receptor beta [6] it was 8%.
In the case of `CCC/C=C(\CCC)[C@@H](NS(=O)(=O)c1ccccc1)c1ccc(C(F)(F)F)cc1`, the Activity at Estrogen receptor beta [1] turned out to be 30%; in experiment [2] it was 66%; in experiment [3], 102%; on Estrogen receptor beta [4], 13%; in experiment [5], 70%; at Estrogen receptor beta [6], 10%.
For `CCC/C=C(\CCC)[C@@H](NS(=O)(=O)c1ccccc1Cl)c1ccc(C(=O)OC)cc1`, the Activity worked out at 40% at Estrogen receptor beta [1]; 92% in experiment [2]; 98% in experiment [3]; 15% on Estrogen receptor beta [4]; 61% in experiment [5]; 32% at Estrogen receptor beta [6].
As to `CCC/C=C(\CCC)[C@@H](NC(=O)c1ccco1)c1ccc(C(=O)OC)cc1`, the Activity on Estrogen receptor beta [1] is 15%; in experiment [2], 58%; in experiment [3], 76%; on Estrogen receptor beta [4], -4%; in experiment [5], 36%; on Estrogen receptor beta [6], -4%.
Regarding `CCCC[C@@H]1C[C@H]1[C@@H](NC(=O)c1cccs1)c1ccc(-c2ccccc2)cc1`, the Activity at Estrogen receptor beta [1] is 5%; in experiment [2], 54%; in experiment [3], 37%; at Estrogen receptor beta [4], -1%; in experiment [5] it was 58%; on Estrogen receptor beta [6], 8%.
`CCCC[C@@H]1C[C@H]1[C@@H](NC(=O)c1ccccc1)c1ccc(C(=O)OC)cc1`: the Activity on Estrogen receptor beta [1] was 6%; in experiment [2], 54%; in experiment [3], 75%; at Estrogen receptor beta [4], -3%; in experiment [5] it was 54%; at Estrogen receptor beta [6], -2%.
Turning to `CCCC[C@@H]1C[C@H]1[C@@H](NC(=O)c1ccc(C(F)(F)F)cc1)c1ccc(C(=O)OC)cc1`, the Activity on Estrogen receptor beta [1] was 15%; in experiment [2] it was 45%; in experiment [3], 45%; on Estrogen receptor beta [4], -2%; in experiment [5] it was 20%; on Estrogen receptor beta [6] it was 1%.
Turning to `CCC/C=C(\CCC)[C@@H](NC(=O)c1ccc(C(F)(F)F)cc1)c1ccc(C(F)(F)F)cc1`, the Activity at Estrogen receptor beta [1] is 5%; in experiment [2], 32%; in experiment [3] it was 61%; at Estrogen receptor beta [4], 10%; in experiment [5], -7%; on Estrogen receptor beta [6] it was 5%.
Take `CCC/C=C(\CCC)[C@@H](NC(=O)Cc1ccccc1)c1ccc(C(=O)OC)cc1`: the Activity is 13% on Estrogen receptor beta [1]; 22% in experiment [2]; 48% in experiment [3]; -11% on Estrogen receptor beta [4]; 3% in experiment [5]; -2% on Estrogen receptor beta [6].
With `CCCC[C@@H]1C[C@H]1[C@@H](NC(=O)c1ccco1)c1ccc(C(F)(F)F)cc1`, the Activity is 22% on Estrogen receptor beta [1]; 15% in experiment [2]; 57% in experiment [3]; 0% on Estrogen receptor beta [4]; 6% in experiment [5]; 2% on Estrogen receptor beta [6].
As for `CCC/C=C(\CCC)[C@@H](NS(=O)(=O)c1cccc2cccnc12)c1ccc(C(=O)OC)cc1`, the Activity at Estrogen receptor beta [1] turned out to be 42%; in experiment [2], 111%; in experiment [3] it was 54%; on Estrogen receptor beta [4], 7%; in experiment [5], 54%; at Estrogen receptor beta [6] it was 24%.
As for `CCC/C=C(\CCC)[C@@H](NS(=O)(=O)c1cccc2cccnc12)c1ccc(-c2ccccc2)cc1`, the Activity is 13% on Estrogen receptor beta [1]; 28% in experiment [2]; 67% in experiment [3]; 14% at Estrogen receptor beta [4]; 56% in experiment [5]; 11% on Estrogen receptor beta [6].
Turning to `CCC/C=C(\CCC)[C@@H](NS(=O)(=O)c1ccc(C(F)(F)F)cc1)c1ccc(C(=O)OC)cc1`, the Activity at Estrogen receptor beta [1] came out at 43%; in experiment [2], 86%; in experiment [3], 90%; on Estrogen receptor beta [4], 15%; in experiment [5] it was 63%; at Estrogen receptor beta [6], 29%.
For the compound `C=C(CCCC)[C@@H](NC(=O)c1ccc(-c2ccccc2)cc1)c1ccccc1`, the Activity on Estrogen receptor beta [1] was 8%; in experiment [2], 35%; in experiment [3], 46%; on Estrogen receptor beta [4], 0%; in experiment [5], -33%; on Estrogen receptor beta [6] it was 2%.
As for `CCC/C=C(\CCC)[C@@H](NS(C)(=O)=O)c1ccccc1`, the Activity on Estrogen receptor beta [1] is 17%; in experiment [2], 39%; in experiment [3] it was 56%; at Estrogen receptor beta [4] it was -3%; in experiment [5], 48%; on Estrogen receptor beta [6], -4%.
Consider `CCCC[C@@H]1C[C@H]1[C@@H](NC(=O)c1ccco1)c1ccc(-c2ccccc2)cc1`, for which the Activity at Estrogen receptor beta [1] was 13%; in experiment [2], 57%; in experiment [3], 54%; at Estrogen receptor beta [4], -2%; in experiment [5], 58%; at Estrogen receptor beta [6], 0%.
`CCCCCC/C=C(\C)[C@@H](NC(=O)c1ccc(C(F)(F)F)cc1)c1ccc(-c2ccccc2)cc1`: the Activity is -3% on Estrogen receptor beta [1]; 20% in experiment [2]; 1% in experiment [3]; -7% on Estrogen receptor beta [4]; 29% in experiment [5]; -6% on Estrogen receptor beta [6].
On to `C=C(CCCC)[C@@H](NC(=O)c1ccc(C(=O)OC)cc1)c1ccccc1`, for which the Activity at Estrogen receptor beta [1] is 5%; in experiment [2], 24%; in experiment [3] it was 37%; at Estrogen receptor beta [4] it was -9%; in experiment [5], 21%; on Estrogen receptor beta [6] it was -7%.
